Assay [1] relates to SH-SY5Y cells. Put plainly: Immunofluorescent staining of Syp and 3-Ntyr in SH-SY5Y cells. The class given is cell-based, human. The following applies: immunofluorescence, 100 μM 7-NI or 20 nM siRNA. As to the method:
In FIGS. 5A-5C, for quantitative analysis each group consisted of three independent sets of experiments run in triplicate. Data are presented as mean±SEM. Statistical significance was determined using a One-way ANOVA followed by Fisher's LSD multiple comparison post hoc test. **P<0.01 and ***P<0.001.
FIG. 5A: Representative immunofluorescent images of SH-SY5Y cells stained for Syp and 3-Ntyr following administration of the control (“SH-SY5Y”), 100 μM 7-NI (“SH-SY5Y+7-NI”), or 20 nM siRNA (SEQ ID NO: 4) (“SH-SY5Y+si-nNOS”). The scale bar is 10 μm.
FIG. 5B: Quantitative analysis of fluorescent intensity of Syp for the experiments of FIG. 5A.
FIG. 5C: Quantitative analysis of fluorescent intensity of 3-Ntyr for the experiments of FIG. 5A.

Assay [2] concerns SH-SY5Y cells. Briefly: NADPH-diaphorase staining of SH-SY5Y cells. The following applies: 7-NI treated vs untreated group. The class given is cell-based, human. How it is done: (§1) Human neuroblastoma (“NB”) SH-SY5Y cells were obtained from the American Type Culture Collection (ATCC) and maintained in Dulbecco's modified Eagle's medium (DMEM) and Ham's F-12 (1:1) supplemented with 10% fetal bovine serum, 2 mM L-glutamine, and 100 U/ml penicillin-G/[…] streptomycin in the humidified atmosphere (37° C., 5% CO2). Cells were plated onto 25 cm^2 and 75 cm^2 at a density of […] respectively for Western blotting (WB) and 1×10^5 for immunofluorescence. The SH-SY5Y cells were treated with 100 μM 7-nitroindazole (7-NI) for 24 hr. This concentration was confirmed in the dose-response experiment (FIG. 1) using an MTT viability assay.
NADPH diaphorase staining were done using NBT as a chromogen and […] as a reductant to detect cells with NOS activity. Cells were cultured and treated as described previously in the immunofluorescence section. Then cells were fixed with 4% PFA for 30 min at room temperature in dark. After fixation, the cells were washed 2 times with PBS and then incubated in 0.2% Triton X-100 (in phosphate buffer) for 10 min. The cells were then incubated in […] NBT-NADPH solution for 2 h at 37C. The cells were washed twice with PBS and permanently mounted with DPX. Images were analyzed with a Nikon confocal TL microscope. […]

The subject of assay [3] is SH-SY5Y cells. Briefly: Nitrite (Griess) assay in SH-SY5Y cells. The class given is cell-based, human. The following applies: 7-NI. How it is done:
as §1
Released NO was measured with Griess assay Kit (Sigma-Aldrich, Cat. No. 23479) using the manufacturer's instructions.
(§2) SH-SY5Y cells were plated in 6 well plates, as well as on 22 mm^2 coverslips at a density of 6.0×10^4 cells/cm^2 and transfected with 20 nM nNOS siRNA (SEQ ID NO: 4) for 24 h, with the use of Lipofectamine RNAi MAX (56530, Invitrogen) according to the manufacturer's protocol. Then cells were washed with phosphate-buffered saline (PBS) and harvested for WB and fixed for immunofluorescence.
(Griess reagent forms a coloured azo dye with nitrite.)

For assay [4], the system named is SH-SY5Y cells. Briefly: Western blot of SH-SY5Y cells (3-Ntyr, mTOR pathway proteins, synaptophysin). The class given is cell-based, human. The following applies: 100 μM 7-NI, 24 hr. As to the method:
as §1
Cells were lysed in ice-cold RIPA buffer containing 50 mM Tris-HCl, 1% Nonidet P-40, 0.25% sodium deoxycholate, 150 mM NaCl, protease-, and phosphatase inhibitor cocktails, pH 7.4. After sonication, the lysates were centrifuged at 17,000 g for 30 min at 4° C., and the supernatant was collected. The protein concentrations were determined with the BCA protein assay. Proteins were resolved by SDS-PAGE, transferred to a PVDF membrane, and probed with the following antibodies: anti-pMTOR (rabbit, diluted 1:1000), anti-mTOR (rabbit, diluted 1:1000), anti-TSC2 (rabbit, diluted 1:1000), anti-nNOS (rabbit, diluted 1:1000), anti-pAKT (rabbit, diluted 1:1000), anti-AKT (rabbit, diluted 1: 1000), anti-pRPS6 (rabbit, diluted 1:1000), anti-RPS6 (mouse, diluted 1:1000), anti-synaptophysin (mouse, diluted 1:1000), anti-β-actin (rabbit, diluted 1:1000), anti-3-Nitrotyrosine (rabbit, diluted 1:5000) from Abcam. All primary antibodies, except anti-3-Nitrotyrosine, were purchased from Cell Signaling Technology. The blots were then visualized using an enhanced chemiluminescence (ECL) system.
as §2
For orientation: A western blot detects proteins with antibodies after separation by electrophoresis.

Another assay has as its system U87-MG cells. Put plainly: Xenograft glioblastoma model, U87-MG cells in NSG mice: survival experiment. Type of assay: in vivo. To be noted: 80 mg/kg or 120 mg/kg 7-NI intraperitoneally daily, vehicle-treated mice 35 days. As to the method:
A xenograft glioblastoma model was generated by injecting 1.0×10^6 U87-MG cells (in PBS) into the subcutaneous tissue in the flank of NOD SCID Gamma (NSG) male (n=40) and female mice (n=5). Mice were 6-7 weeks old at time of injections. Mice were divided into groups and treatment was started when tumor volume reached 50 mm^3.
A survival experiment was performed in the mice, the treatment groups were saline (“Vehicle”) (n=10), 80 mg/kg 7-NI (n=10), and 120 mg/kg 7-NI (n=8). Treatments were administered intraperitoneally daily.

The test system of another assay is SH-SY5Y-xenografted mice. Briefly: Tumor volume in SH-SY5Y-xenografted mice. To be noted: 80 mg/kg 7-NI, after 1 month, vs control. The class given is in vivo. As to the method: Data are presented as mean±SEM. Statistical significance was determined using a One-way ANOVA followed by Fisher's LSD multiple comparison post hoc test. **P<0.01.

The structures appear in SMILES notation.

For the compound `O=[N+]([O-])c1cccc2cn[nH]c12` [7-NI, 7-nitroindazole], in the assay on SH-SY5Y cells [1], the “3-Ntyr expression levels (fluorescent intensity)” value is listed as “significant decrease” and the “Syp expression levels (fluorescent intensity)” value was “significant decrease”. Besides, in the assay on SH-SY5Y cells [2], the NADPH diaphorase staining entry is “decreased”. The “nitrite content (Griess assay)” value in the assay with SH-SY5Y cells [3] was “dramatic reduction”. Besides, in the assay with SH-SY5Y cells [4], the 3-Ntyr levels entry is recorded as “halved”, the “levels of TSC-2” value was “significant increase”, the levels of synaptophysin entry is recorded as “significantly decreased” and the “phosphorylation of RPS6” value is “reduced”. In the assay on SH-SY5Y cells [4], the “phosphorylation of mTOR” value is listed as “decrease” and the “phosphorylation of protein kinase-B (AKT)” value is reported as “reduced”. In the assay with U87-MG cells, the median survival is given as ~ 65 days. Also, in the assay on SH-SY5Y-xenografted mice, the tumor volume result was “significantly smaller”.

These data come from patent US20260284009A1, “COMPOUNDS FOR NOS-RELATED CANCERS AND METHODS OF USE” (YISSUM RESEARCH DEVELOPMENT COMPANY OF THE HEBREW …, priority 2023, published 2026).
